Data from US20240158386A1, “BENZOXAZOLONE INHIBITORS OF INFLAMMASOMES” (ICAHN SCHOOL OF MEDICINE AT MOUNT SINAI, priority 2021, published 2024).

What was measured:
[1] = biological target: T1, NLRC4 inflammasome (Mus musculus, UniProt Q3UP24); assay: NLRC4 inflammasome activation assay: IL-1β release, microglia from NLRP3 KO mice, LPS and flagellin; format: cell-based; conditions: 10 μM; microglia from NLRP3 KO mice, LPS and flagellin
T1 construct: endogenous in cells; host or cells: primary microglia from NLRP3 KO mice
T1 sequence (Q3UP24 whole entry): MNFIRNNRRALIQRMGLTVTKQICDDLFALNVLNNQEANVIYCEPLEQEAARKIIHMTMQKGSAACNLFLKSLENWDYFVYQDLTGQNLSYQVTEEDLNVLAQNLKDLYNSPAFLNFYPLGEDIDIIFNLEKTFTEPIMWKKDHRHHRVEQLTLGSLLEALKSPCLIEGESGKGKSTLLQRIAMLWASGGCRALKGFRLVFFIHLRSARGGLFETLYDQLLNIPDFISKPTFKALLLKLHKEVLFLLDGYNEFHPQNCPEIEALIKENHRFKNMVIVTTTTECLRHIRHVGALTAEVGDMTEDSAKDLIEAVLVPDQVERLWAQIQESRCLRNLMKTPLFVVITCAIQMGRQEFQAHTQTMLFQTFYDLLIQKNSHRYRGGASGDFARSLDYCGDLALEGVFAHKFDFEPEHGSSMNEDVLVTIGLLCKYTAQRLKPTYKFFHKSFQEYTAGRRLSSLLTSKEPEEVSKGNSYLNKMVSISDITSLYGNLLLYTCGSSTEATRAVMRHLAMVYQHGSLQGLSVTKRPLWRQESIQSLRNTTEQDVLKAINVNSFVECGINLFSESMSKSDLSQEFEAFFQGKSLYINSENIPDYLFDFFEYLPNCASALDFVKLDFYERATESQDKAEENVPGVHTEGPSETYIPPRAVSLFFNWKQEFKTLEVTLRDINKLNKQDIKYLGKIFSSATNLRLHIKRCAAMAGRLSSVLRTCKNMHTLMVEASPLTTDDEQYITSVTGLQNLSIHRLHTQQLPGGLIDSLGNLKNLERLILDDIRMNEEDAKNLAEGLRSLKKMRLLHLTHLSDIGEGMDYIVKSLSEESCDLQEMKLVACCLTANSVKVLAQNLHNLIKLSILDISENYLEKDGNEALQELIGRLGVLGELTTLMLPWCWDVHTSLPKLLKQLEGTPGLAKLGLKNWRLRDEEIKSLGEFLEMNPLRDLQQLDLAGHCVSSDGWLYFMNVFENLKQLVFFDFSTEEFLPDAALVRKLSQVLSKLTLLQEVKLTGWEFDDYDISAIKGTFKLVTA
Protocol: AIM2, NLRP7, and NLRC4 inflammasomes activation assays. […] AIM2 inflammasome activation was induced through the addition of 100 ng/ml LPS for 2 hours, followed by transfection of 1 μg poly(dA:dT) using Lipofectamine 2000 during 2 hours, following the manufacturer recommendations. NLRC4 was activated by treatment with 150 ng/ml LPS for 2 hours, before transfection of 1 μg flagellin during 2 hours, using lipofectamine 2000 as transfection reagent. Negative and positive controls were pre-treated with the same DMSO percentage as cells treated with the inhibitors. Negative controls were kept untreated after DMSO addition, while LPS-poly(dA:dT) or LPS-flagellin was added to positive controls for AIM2, and NLRC4 activation, respectively. For activation of the NLRP7 inflammasome different conditions were assessed: treatment of WT microglia cultures with 400 ng/ml fibroblast-stimulating lipopeptide-1 (fsl-1) for 7 hours, priming with 150 ng/ml LPS for 1 hour and treatment with 400 ng/ml fsl-1 for 7 hours, and priming with 150 ng/ml LPS and transfection of 400 ng/ml fsl-1 with lipofectamine. MCC950 was used as a negative control for NLRC4 and AIM-2 inhibition. Cells were pretreated with 5 μM MCC950 before LPS addition, and 2 hours later the NLRC4 and AIM-2 activation was induced through addition of their specific activators. Cell supernatants were collected for IL-1β measurement.
(§1) Cytokine quantification. IL-1β in cell supernatants and brain tissue samples—after the different treatment groups—was quantified using the Mouse IL-1 beta/IL-1F2 DuoSet ELISA kit (R&D systems), IL-6 in cell culture supernatant was measured through the Mouse IL-6 ELISA kit (ThermoFisher), TNF-α in cell culture supernatants was determined using the Mouse TNF-alpha DuoSet ELISA (R*D systems), and IL-18 in brain tissue was measured through the IL-18 Mouse ELISA Kit (Invitrogen) following the manufacturers' recommended protocol. IL-1β precursor and cleaved IL-1β in the FC of mice treated with vehicles, LPS, or C77-LPS was assessed by western blot. All samples were run in technical duplicates.

[2] = tested on: ASC specks following NLRP3 activation; assay: ASC speck formation / ASC oligomerization in m-Cerulean ASC labeled macrophages; format: cell-based, murine; conditions: 10 μM pretreatment, LPS and ATP, compared with DMSO-treated cells
Protocol: m-Cerulean ASC labeled macrophages. NLRP3 Knock Out immortalized murine macrophages, stably expressing m-Cerulean-ASC, and NLRP3-Flag were a kind donation of Prof. Eicke Latz, (Institute of Innate Immunity, University of Bonn, Germany). Murine macrophages were maintained in high glucose DMEM medium supplemented with 10% FBS, 1% sodium pyruvate, and passaged every 2-3 days, before reaching confluence.
For ASC speck formation evaluation, murine macrophages were seeded in 96 well SCREENSTAR black microplates with clear base, 24 hours before stimulation. Then, cells were incubated for 1 hour with different concentrations of the inhibitors, or with the same DMSO volume for positive and negative controls for NLRP3 activation—DMSO-LPS-ATP or only DMSO, respectively. 0.5 μM MCC950 was used as a positive control for inhibition of NLRP3-mediated ASC oligomerization. NLRP3 activation was induced through treatment with 250 ng/ml LPS for 2.5 hours, followed by addition of 4.5 mM ATP for 45 min. Cells were then fixed and counterstained in a single step, as previously described (Stutz, A. et al. ASC Speck Formation as a Readout for Inflammasome Activation. in The Inflammasome (eds. De Nardo, C. M. & Latz, E.) vol. 1040 91-101 (Humana Press, 2013).). For that, a stock solution of DRAQS in formaldehyde was used, being the final concentrations 1% formaldehyde and 2.5 μM DRAQ5.
ASC oligomerization determination. […] ASC specks in cells pretreated with C75, C77, C78, and C97, before NLRP3 activation (as above indicated), were visualized with a widefield Leica DMi8 fluorescence microscope, using the 20× objective. […] For image analysis and speck quantification, ImageJ was used https://imagej.nih.gov/ij/index.html. Speck and nuclei quantification was performed as previously described in Stutz et al. When required (overlapping nuclei), the watershed separation algorithm was used to separate the particles. […] The rate of speck positive cells was calculated by normalizing the number of speck positive cells to the number of nuclei. […]

[3] = biological target: T2, NLRP3 inflammasome (Mus musculus, UniProt Q8R4B8); assay: NLRP3 inflammasome activation assay: IL-1β release by primary microglia after LPS and ATP; format: cell-based, murine; conditions: for inhibition of IL-1β release upon NLRP3 activation: 100 μM compound; for inhibition of IL-1β release upon NLRP3 activation / IC50: microglia, LPS and ATP; for IC50: IL-1β release, nonlinear fit of dose-response, read-out: IC50; for remaining activity at 100 µM: microglia cultures pretreated with 100 μM compound before NLRP3 activation with LPS and ATP, read-out: % Residual activity (percentage of IL-1β, referred to control)
T2 construct: endogenous in cells; host or cells: primary microglia from cortices of 2-3 day old WT mouse pups
T2 sequence (Q8R4B8 whole entry): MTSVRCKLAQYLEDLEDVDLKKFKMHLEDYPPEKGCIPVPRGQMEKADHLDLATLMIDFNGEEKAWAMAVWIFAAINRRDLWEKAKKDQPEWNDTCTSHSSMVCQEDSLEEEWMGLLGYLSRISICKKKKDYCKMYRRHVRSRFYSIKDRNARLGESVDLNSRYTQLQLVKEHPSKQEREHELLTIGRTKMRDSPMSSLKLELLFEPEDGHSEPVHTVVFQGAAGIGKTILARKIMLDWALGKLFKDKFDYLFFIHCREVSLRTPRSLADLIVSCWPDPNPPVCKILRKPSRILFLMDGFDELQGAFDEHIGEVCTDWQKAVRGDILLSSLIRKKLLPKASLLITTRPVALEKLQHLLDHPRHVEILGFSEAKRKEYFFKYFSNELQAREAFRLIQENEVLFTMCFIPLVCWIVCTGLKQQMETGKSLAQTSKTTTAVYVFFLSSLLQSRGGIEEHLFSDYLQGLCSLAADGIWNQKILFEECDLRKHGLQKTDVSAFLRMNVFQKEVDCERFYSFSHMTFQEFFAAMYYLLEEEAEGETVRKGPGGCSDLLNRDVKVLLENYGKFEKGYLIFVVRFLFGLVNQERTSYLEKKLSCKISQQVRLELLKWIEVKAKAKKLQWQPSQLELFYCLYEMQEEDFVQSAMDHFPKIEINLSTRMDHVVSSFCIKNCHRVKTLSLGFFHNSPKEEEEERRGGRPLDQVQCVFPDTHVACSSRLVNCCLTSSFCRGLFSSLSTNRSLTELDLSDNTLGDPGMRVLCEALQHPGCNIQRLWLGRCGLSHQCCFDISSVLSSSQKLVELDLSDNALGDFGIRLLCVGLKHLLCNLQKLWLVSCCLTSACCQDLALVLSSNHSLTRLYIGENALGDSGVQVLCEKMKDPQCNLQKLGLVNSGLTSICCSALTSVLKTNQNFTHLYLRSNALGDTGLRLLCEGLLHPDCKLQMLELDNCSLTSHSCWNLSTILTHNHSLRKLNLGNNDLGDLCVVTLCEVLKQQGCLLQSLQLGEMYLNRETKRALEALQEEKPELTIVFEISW
Protocol: Murine primary microglia. Mixed cortical cultures were prepared as previously described (Bronstein, R. et al. J. Vis. Exp. JoVE 50647 (2013) doi:10.3791/50647). Briefly, cortices from 2-3 days old, WT, or NLRP3 KO pups were isolated, digested, and seeded at a density of 8 cortices per 10 ml petri dish. Every three days, the medium was replaced by fresh culture medium (DMEM, 10% FBS, 1% penicillin-streptomycin). After three weeks, mixed glial cultures had reached confluence, and microglia cells were isolated by mild trypsinization as previously described (Saura, J. et al. Glia 44, 183-189 (2003)). In brief, cells were washed with culture medium without FBS and treated with a mixture of trypsin 0.25% (without EDTA) and DMEM-F12 medium in a 1:3 proportion. After an incubation period of approximately 40 min, an intact layer of mixed glial cells detached, leaving microglia attached firmly to the bottom of the Petri-dish. Pure microglia were then isolated by 15 min incubation with trypsin (0.05%)-EDTA at 37° C., followed by gentle shaking. Cells were counted and seeded at the desired density, typically 7.5·10^4 cells/well in 24 well-plates.
NLRP3 inflammasome activation assay. Primary microglia cultures were incubated with the compounds that inhibited IL-1β production in THP1 macrophages. Cells pretreated with 100 μM of the compounds—or with the same DMSO volume, in the case of control samples—were primed with 400 ng/ml LPS for 3 hours, and activated with 4.5 mM ATP for 45 minutes or […] nigericin for 1 hour. Dose-response curves were conducted by incubating microglia cultures with different concentrations of the selected compounds, ranging from 0.001 to 100 μM, 1 hour before NLRP3 activation with LPS and ATP. Supernatants were collected for IL-1β and toxicity assessments.
as §1

| SMILES | inhibition of NLRC4-mediated IL-1β production [1] | rate of ASC speck positive cells [2] | inhibition of IL-1β release upon NLRP3 activation [3] | IC50 [3] [µM] | remaining activity at 100 µM [3] [%] |
| --- | --- | --- | --- | --- | --- |
| O=C(Cn1c(=O)oc2ccccc21)NCCn1cc(-c2ccoc2)cn1 [Compound C78, N-(2-(4-(furan-3-yl)-1H-pyrazol-1-yl)ethyl)-2-(2-oxobenzoidloxazol-3(2H)-yl)acetamide] | presented inhibitory power against the NLRC4 inflammasome | significantly reduced | completely prevented IL-1β secretion | 8.26 ± 1.16 | 0 |
| O=C(Cn1c(=O)oc2ccccc21)NCC(O)(c1ccoc1)c1ccco1 (stereo not shown) [Compound C75] | presented inhibitory power against the NLRC4 inflammasome | significantly reduced | completely prevented IL-1β secretion | 9.24 ± 1.06 | 0 |
